# Measurements published in patent publication US10214512B2, “Factor XIA inhibitors” (MERCK SHARP & DOHME CORP., priority 2015, dated 2019).
# Like-named read-outs stand apart in the source and are kept apart here.
# Key:
# [1] = target: purified human Factor XIa (Homo sapiens (Human), UniProt P03951); assay: Factor XIa Assay; format: biochemical; conditions: purified human Factor XIa 40 pM; substrate Z-Gly-Pro-Arg-AFC 100 μM; 50 mM HEPES pH 7.4; read-out: Human FXIa Ki
# Method in brief: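 Ki obtained from the dependence of uninhibited/inhibited initial-velocity ratio on inhibitor concentration, under a competitive-inhibition model. Reactions used 100 μM Z-Gly-Pro-Arg-AFC and 40 pM final human Factor XIa in pH 7.4 HEPES buffer with NaCl, CaCl2 and PEG 8000; run at rt or 37° C following pre-equilibration.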
# [2] = target: purified Human plasma Kallikrein (Homo sapiens (Human), UniProt P03952); assay: Kallikrein Assay; format: biochemical
# Sequence of purified Human plasma Kallikrein (P03952 391-638): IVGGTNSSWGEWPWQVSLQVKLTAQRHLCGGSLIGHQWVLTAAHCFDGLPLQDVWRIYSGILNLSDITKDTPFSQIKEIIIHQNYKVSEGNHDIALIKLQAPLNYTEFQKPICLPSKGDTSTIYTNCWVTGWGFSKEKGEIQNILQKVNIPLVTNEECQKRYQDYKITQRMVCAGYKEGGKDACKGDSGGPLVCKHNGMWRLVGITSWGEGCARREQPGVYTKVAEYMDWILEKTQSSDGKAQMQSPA
# Sequence of purified Human plasma Kallikrein (P03952 20-390 partner): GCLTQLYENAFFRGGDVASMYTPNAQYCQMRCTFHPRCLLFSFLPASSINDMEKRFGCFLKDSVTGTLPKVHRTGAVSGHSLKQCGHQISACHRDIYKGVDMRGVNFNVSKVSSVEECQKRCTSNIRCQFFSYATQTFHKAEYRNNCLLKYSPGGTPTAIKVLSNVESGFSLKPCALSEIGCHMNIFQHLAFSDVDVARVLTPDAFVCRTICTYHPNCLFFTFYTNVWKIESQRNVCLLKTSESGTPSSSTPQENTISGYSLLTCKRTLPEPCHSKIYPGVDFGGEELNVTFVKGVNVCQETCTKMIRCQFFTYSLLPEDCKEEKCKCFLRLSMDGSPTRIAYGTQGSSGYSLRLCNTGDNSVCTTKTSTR
# Method in brief: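 Purified human plasma kallikrein (0.5 nM) with fluorogenic Ac-K-P-R-AFC ([…]) in 50 mM HEPES pH 7.4, 150 mM NaCl, 5 mM CaCl2, 0.1% PEG 8000, at rt or 37 °C. Substrate hydrolysis rate read with and without inhibitor; IC50 from four-parameter logistic fit, converted to Ki by Cheng–Prusoff.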
# [3] = purified Human plasma Kallikrein 0.5 nM, substrate Acetyl-K-P-R-AFC, 50 mM HEPES pH 7.4, Ki from IC50 by Cheng Prusoff
# Sequence of purified human Factor XIa (P03951 388-625): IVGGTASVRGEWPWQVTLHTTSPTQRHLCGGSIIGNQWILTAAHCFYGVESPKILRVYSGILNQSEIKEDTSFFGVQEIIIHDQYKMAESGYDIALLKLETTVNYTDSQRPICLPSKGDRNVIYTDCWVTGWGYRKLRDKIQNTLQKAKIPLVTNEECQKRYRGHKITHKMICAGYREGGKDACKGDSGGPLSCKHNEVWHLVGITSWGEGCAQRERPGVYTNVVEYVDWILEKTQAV
# Sequence of purified human Factor XIa (P03951 19-387 partner): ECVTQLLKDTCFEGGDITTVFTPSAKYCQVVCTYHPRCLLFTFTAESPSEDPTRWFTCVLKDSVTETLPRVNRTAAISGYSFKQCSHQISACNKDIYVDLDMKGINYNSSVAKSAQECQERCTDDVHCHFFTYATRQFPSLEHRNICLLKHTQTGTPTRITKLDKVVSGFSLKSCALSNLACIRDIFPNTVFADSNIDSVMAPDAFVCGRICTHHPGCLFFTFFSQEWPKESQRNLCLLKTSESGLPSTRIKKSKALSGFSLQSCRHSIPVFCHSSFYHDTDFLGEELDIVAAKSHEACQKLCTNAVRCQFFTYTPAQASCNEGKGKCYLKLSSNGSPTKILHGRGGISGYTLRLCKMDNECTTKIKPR
compound,measurement,setting,value
"COC(=O)Nc1ccc2c(c1)NC(=O)CCCCC(c1ccc(-c3c(F)cccc3OC(F)F)c[n+]1[O-])c1nc-2c(C2CC2)[nH]1 (single isomer, unassigned) [Example 113-a, (Z)-2-(1^5-cyclopropyl-2^4-((methoxycarbonyl)amino)-4-oxo-1^1H-3-aza-1(4,2)-imidazola-2(1,2)-benzenacyclononaphane-9-yl)-5-(2-(difluoromethoxy)-6-fluorophenyl)pyridine 1-oxide]",Ki,[1],0.21 nM
same,Ki,[2]; [3],1.87 nM
"O=C1CCCC[C@H](c2ccc(-c3cc(Cl)ccc3-c3cnco3)c[n+]2[O-])c2nc(c[nH]2)-c2cc(F)ccc2N1 (single isomer, unassigned) [Example 118]",Ki,[1],5.69 nM
same,Ki,[2]; [3],37.5 nM
"COC(=O)Nc1ccc2c(c1)NC(=O)CCCC[C@H](c1ccc(-c3c(F)cccc3F)c[n+]1[O-])c1nc-2c(C)[nH]1 (single isomer, unassigned) [Example 119]",Ki,[1],0.54 nM
same,Ki,[2]; [3],1.68 nM
"COC(=O)Nc1ccc2c(c1)NC(=O)CCCC[C@H](c1ccc(-c3ccccc3C(F)(F)F)c[n+]1[O-])c1nc-2c(C)[nH]1 (single isomer, unassigned) [Example 121]",Ki,[1],0.43 nM
same,Ki,[2]; [3],3.9 nM
"COC(=O)Nc1ccc2c(c1)NC(=O)CCCC[C@H](c1ccc(-c3c(F)cccc3C(F)(F)F)c[n+]1[O-])c1nc-2c(C)[nH]1 (single isomer, unassigned) [Example 122]",Ki,[1],0.36 nM
same,Ki,[2]; [3],2.96 nM
"COC(=O)Nc1ccc2c(c1)NC(=O)CCCC[C@H](c1ccc(-c3c(C(F)(F)F)ccc(Cl)c3F)c[n+]1[O-])c1nc-2c(C)[nH]1 (single isomer, unassigned) [Example 123]",Ki,[1],0.42 nM
same,Ki,[2]; [3],1.41 nM
"COC(=O)Nc1ccc2c(c1)NC(=O)CCCC[C@H](c1ccc(-c3c(C(F)F)ccc(Cl)c3F)c[n+]1[O-])c1nc-2c(C)[nH]1 (single isomer, unassigned) [Example 124]",Ki,[1],0.2 nM
same,Ki,[2]; [3],0.73 nM
"CCc1[nH]c2nc1-c1ccc(NC(=O)OC)cc1NC(=O)CCCC[C@@H]2c1ccc(-c2c(F)cccc2OC(F)F)c[n+]1[O-] (single isomer, unassigned) [Example 127]",Ki,[1],0.15 nM
same,Ki,[2]; [3],2.44 nM
"Cc1[nH]c2nc1-c1ccc(N)cc1NC(=O)CCCC[C@@H]2c1ccc(-c2c(F)ccc(Cl)c2F)c[n+]1[O-] (single isomer, unassigned) [Example 128]",Ki,[1],0.14 nM
same,Ki,[2]; [3],0.74 nM
"COC(=O)Nc1ccc2c(c1)NC(=O)CCCC[C@H](c1ccc(-c3cc(F)ccc3OC(F)F)c[n+]1[O-])c1nc-2c(C)[nH]1 (single isomer, unassigned) [Example 129]",Ki,[1],0.12 nM
same,Ki,[2]; [3],1.72 nM
"COC(=O)Nc1ccc2c(c1)NC(=O)CCCC[C@H](c1ccc(-c3cc(F)ccc3OC(F)(F)F)c[n+]1[O-])c1nc-2c(C)[nH]1 (single isomer, unassigned) [Example 132]",Ki,[1],0.22 nM
same,Ki,[2]; [3],5.94 nM
"CCc1[nH]c2nc1-c1ccc(NC(=O)OC)cc1NC(=O)CCCC[C@@H]2c1ccc(-c2cc(F)ccc2OC(F)(F)F)c[n+]1[O-] (single isomer, unassigned) [Example 133]",Ki,[1],0.46 nM
same,Ki,[2]; [3],5.08 nM
"CCc1[nH]c2nc1-c1ccc(NC(=O)OC)cc1NC(=O)CCCC[C@@H]2c1ccc(-c2c(F)cccc2-n2cc(C(F)(F)F)cn2)c[n+]1[O-] (single isomer, unassigned) [Example 138]",Ki,[1],2.3 nM
same,Ki,[2]; [3],665 nM
"COC(=O)Nc1ccc2c(c1)NC(=O)CCCC[C@H](c1ccc(-c3cc(Cl)ccc3-n3cccn3)c[n+]1[O-])c1nc-2c(C)[nH]1 (single isomer, unassigned) [Example 139]",Ki,[1],0.35 nM
same,Ki,[2]; [3],22.2 nM
"COC(=O)Nc1ccc2c(c1)NC(=O)CCCC[C@H](c1ccc(-c3cc(Cl)ccc3-n3cc(C)cn3)c[n+]1[O-])c1nc-2c(C)[nH]1 (single isomer, unassigned) [Example 141]",Ki,[1],0.49 nM
same,Ki,[2]; [3],82.8 nM
"Cc1[nH]c2nc1-c1cc(F)ccc1NC(=O)CCCC[C@@H]2c1ccc(-c2cc(F)ccc2-n2cnnn2)c[n+]1[O-] (single isomer, unassigned) [Example 142]",Ki,[1],0.47 nM
same,Ki,[2]; [3],56.7 nM
"COC(=O)Nc1ccc2c(c1)NC(=O)[C@@H](C)CCC[C@H](c1ccc(-c3c(F)cccc3F)c[n+]1[O-])c1nc-2c(C)[nH]1 (single isomer, unassigned) [Example 143-a]",Ki,[1],0.33 nM
same,Ki,[2]; [3],1.61 nM
"COC(=O)Nc1ccc2c(c1)NC(=O)[C@H](C)CCC[C@H](c1ccc(-c3c(F)cccc3F)c[n+]1[O-])c1nc-2c(C)[nH]1 (single isomer, unassigned) [Example 143-b]",Ki,[1],0.1 nM
same,Ki,[2]; [3],0.4 nM
"COC(=O)Nc1ccc2c(c1)NC(=O)[C@@H](C)CCC[C@@H](c1ccc(-c3c(F)cccc3F)c[n+]1[O-])c1nc-2c(C)[nH]1 (single isomer, unassigned) [Example 143-c]",Ki,[1],1.4 nM
same,Ki,[2]; [3],5.92 nM
"CCc1[nH]c2nc1-c1ccc(NC(=O)OC)cc1NC(=O)C(C)CCC[C@@H]2c1ccc(-c2c(F)cccc2F)c[n+]1[O-] (single isomer, unassigned) [Example 144]",Ki,[1],0.46 nM
same,Ki,[2]; [3],1.35 nM
"COC(=O)Nc1ccc2c(c1)NC(=O)C(C)(C)CCC[C@H](c1ccc(-c3c(F)cccc3OC(F)F)c[n+]1[O-])c1nc-2c(C)[nH]1 (single isomer, unassigned) [Example 147]",Ki,[1],0.22 nM
same,Ki,[2]; [3],3.08 nM
"COC(=O)Nc1ccc2c(c1)NC(=O)C1(CCC[C@H](c3ccc(-c4c(F)cccc4OC(F)F)c[n+]3[O-])c3nc-2c(C)[nH]3)CC1 (single isomer, unassigned) [Example 148]",Ki,[1],2.5 nM
same,Ki,[2]; [3],37.3 nM
"C[C@@H]1CCC[C@H](c2ccc(-c3cc(Cl)ccc3-n3cc(Cl)nn3)c[n+]2[O-])c2cccc(c2)-c2c(cnn2C(F)F)NC1=O (single isomer, unassigned) [Example 166-a]",Ki,[1],0.14 nM
same,Ki,[2]; [3],1.39 nM
"O=C1CCCC[C@H](c2ccc(-c3cc(Cl)ccc3-n3cc(C(F)(F)F)cn3)c[n+]2[O-])c2cccc(c2)-c2c(cnn2C(F)F)N1 (single isomer, unassigned) [Example 167]",Ki,[1],1.37 nM
same,Ki,[2]; [3],376 nM
"N#Cc1cnn(-c2ccc(Cl)cc2-c2ccc([C@H]3CCCCC(=O)Nc4cnn(C(F)F)c4-c4cccc3c4)[n+]([O-])c2)c1 (single isomer, unassigned) [Example 169]",Ki,[1],3.8 nM
same,Ki,[2]; [3],94.2 nM
"C[C@@H]1CCC[C@H](c2ccc(-c3ccccc3-n3cc(Cl)nn3)c[n+]2[O-])c2cccc(c2)-c2c(cnn2C(F)F)NC1=O (single isomer, unassigned) [Example 172-a]",Ki,[1],1.37 nM
same,Ki,[2]; [3],376 nM
"O=C1CCCC[C@H](c2ccc(-c3cc(Cl)ccc3-n3cnnn3)cn2)c2cccc(c2)-c2cc(F)ccc2N1 [Example 1-a, (S)-9-(5-(5-Chloro-2-(1H-tetrazol-1-yl)phenyl)pyridin-2-yl)-2^5-fluoro-3-aza-1(1,3),2(1,2)-dibenzenacyclononaphan-4-one]",Ki,[1],22.3 nM
same,Ki,[2]; [3],205 nM
"O=C1CCCC[C@H](c2ccc(-c3cc(Cl)ccc3-n3cnnn3)c[n+]2[O-])c2cccc(c2)-c2cc(F)ccc2N1 [Example 2-a, (S) 5-(5-chloro-2-(1H-tetrazol-1-yl)phenyl)-2-(2^5-fluoro-4-oxo-3-aza-1(1,3),2(1,2)-dibenzenacyclononaphane-9-yl)pyridine 1-oxide]",Ki,[1],0.09 nM
same,Ki,[2]; [3],2.7 nM
"C[C@@H]1CCC[C@@H](c2ccc(-c3cc(Cl)ccc3-n3cnnn3)c[n+]2[O-])c2cccc(c2)-c2cc(F)ccc2NC1=O [Example 3-a, 5-(5-chloro-2-(1H-tetrazol-1-yl)phenyl)-2-((5R,9R)-2^5-fluoro-5-methyl-4-oxo-3-aza-1(1,3),2(1,2)-dibenzenacyclononaphane-9-yl)pyridine 1-oxide]",Ki,[1],27.7 nM
same,Ki,[2]; [3],79.8 nM
"C[C@H]1CCC[C@H](c2ccc(-c3cc(Cl)ccc3-n3cnnn3)c[n+]2[O-])c2cccc(c2)-c2cc(F)ccc2NC1=O [Example 3-b, 5-(5-chloro-2-(1H-tetrazol-1-yl)phenyl)-2-((5S,9S)-2^5-fluoro-5-methyl-4-oxo-3-aza-1(1,3),2(1,2)-dibenzenacyclononaphane-9-yl)pyridine 1-oxide]",Ki,[1],0.57 nM
same,Ki,[2]; [3],10.6 nM
"C[C@H]1CCC[C@@H](c2ccc(-c3cc(Cl)ccc3-n3cnnn3)c[n+]2[O-])c2cccc(c2)-c2cc(F)ccc2NC1=O [Example 3-c, 5-(5-Chloro-2-(1H-tetrazol-1-yl)phenyl)-2-((5S,9R)-2^5-fluoro-5-methyl-4-oxo-3-aza-1(1,3),2(1,2)-dibenzenacyclononaphane-9-yl)pyridine 1-oxide]",Ki,[1],26.3 nM
same,Ki,[2]; [3],660 nM
"C[C@@H]1CCC[C@H](c2ccc(-c3cc(Cl)ccc3-n3cnnn3)c[n+]2[O-])c2cccc(c2)-c2cc(F)ccc2NC1=O [Example 3-d, 5-(5-Chloro-2-(1H-tetrazol-1-yl)phenyl)-2-((5R,9S)-2^5-fluoro-5-methyl-4-oxo-3-aza-1(1,3),2(1,2)-dibenzenacyclononaphane-9-yl)pyridine 1-oxide]",Ki,[1],0.18 nM
same,Ki,[2]; [3],0.59 nM
"O=C1CCCC[C@H](c2ccc(-c3cc(Cl)ccc3-n3cnnn3)c[n+]2[O-])c2cccc(c2)-c2cc(C(=O)O)ccc2N1 [Example 4-a, 2-(2^5-Carboxy-4-oxo-3-aza-1(1,3),2(1,2)-dibenzenacyclononaphane-9-yl)-5-(5-chloro-2-(1H-tetrazol-1-yl)phenyl)pyridine 1-oxide]",Ki,[1],0.31 nM
same,Ki,[2],3.41 nM
